Results from US10829833B2, “Biological processing of scrap metal, household waste and/or industrial waste for the isolation of heavy metals” (B.R.A.I.N. Biotechnology Research and Information Network AG, priority 2015, dated 2020).

What was measured:
Assay in all cases: Microbial growth on agar plates with different concentrations of AgNO3 or HAuCl4
Format in all cases: cell-based
Parameters in all cases: key: x = growth; (x) = weak growth
Settings in all cases: agar plate
[1] = system: Bacillus sphaericus
Excerpt: (§1) To investigate the tolerated concentration of silver and gold, the microorganisms were propagated in liquid medium and streaked on agar plates with different concentrations of AgNO3 or HAuCl4, respectively.

[2] = system: Cupriavidus metallidurans
Excerpt: as §1

[3] = system: Escherichia coli
Excerpt: as §1

[4] = system: Xanthomonas campestris
Excerpt: as §1

Compound: O=[N+]([O-])[O-].[Ag+] [AgNO3]
- Microbial growth in dependence on AgNO3 concentration ([1]; AgNO3 2 μM): x
- Microbial growth in dependence on AgNO3 concentration ([1]; AgNO3 10 μM): x
- Microbial growth in dependence on AgNO3 concentration ([1]; AgNO3 20 μM): x
- Microbial growth in dependence on AgNO3 concentration ([1]; AgNO3 50 μM): x
- Microbial growth in dependence on AgNO3 concentration ([1]; AgNO3 100 μM): x
- Microbial growth in dependence on AgNO3 concentration ([1]; AgNO3 150 μM): x
- Microbial growth in dependence on AgNO3 concentration ([2]; AgNO3 2 μM): x
- Microbial growth in dependence on AgNO3 concentration ([2]; AgNO3 10 μM): x
- Microbial growth in dependence on AgNO3 concentration ([2]; AgNO3 20 μM): x
- Microbial growth in dependence on AgNO3 concentration ([2]; AgNO3 50 μM): x
- Microbial growth in dependence on AgNO3 concentration ([2]; AgNO3 100 μM): x
- Microbial growth in dependence on AgNO3 concentration ([2]; AgNO3 150 μM): x
- Microbial growth in dependence on AgNO3 concentration ([2]; AgNO3 200 μM): (x)
- Microbial growth in dependence on AgNO3 concentration ([3]; AgNO3 2 μM): x
- Microbial growth in dependence on AgNO3 concentration ([3]; AgNO3 10 μM): x
- Microbial growth in dependence on AgNO3 concentration ([3]; AgNO3 20 μM): x
- Microbial growth in dependence on AgNO3 concentration ([3]; AgNO3 50 μM): x
- Microbial growth in dependence on AgNO3 concentration ([3]; AgNO3 100 μM): x
- Microbial growth in dependence on AgNO3 concentration ([4]; AgNO3 2 μM): x
- Microbial growth in dependence on AgNO3 concentration ([4]; AgNO3 10 μM): x
- Microbial growth in dependence on AgNO3 concentration ([4]; AgNO3 20 μM): x
- Microbial growth in dependence on AgNO3 concentration ([4]; AgNO3 50 μM): x
- Microbial growth in dependence on AgNO3 concentration ([4]; AgNO3 100 μM): x

Compound: [Au+3].[Cl-].[Cl-].[Cl-].[Cl-].[H+] [HAuCl4]
- Microbial growth in dependence on HAuCl4 concentration ([1]; HAuCl4 2 μM): x
- Microbial growth in dependence on HAuCl4 concentration ([1]; HAuCl4 20 μM): x
- Microbial growth in dependence on HAuCl4 concentration ([1]; HAuCl4 100 μM): x
- Microbial growth in dependence on HAuCl4 concentration ([1]; HAuCl4 200 μM): x
- Microbial growth in dependence on HAuCl4 concentration ([2]; HAuCl4 2 μM): x
- Microbial growth in dependence on HAuCl4 concentration ([2]; HAuCl4 20 μM): x
- Microbial growth in dependence on HAuCl4 concentration ([2]; HAuCl4 100 μM): x
- Microbial growth in dependence on HAuCl4 concentration ([2]; HAuCl4 200 μM): x
- Microbial growth in dependence on HAuCl4 concentration ([2]; HAuCl4 300 μM): x
- Microbial growth in dependence on HAuCl4 concentration ([2]; HAuCl4 400 μM): x
- Microbial growth in dependence on HAuCl4 concentration ([2]; HAuCl4 500 μM): x
- Microbial growth in dependence on HAuCl4 concentration ([3]; HAuCl4 2 μM): x
- Microbial growth in dependence on HAuCl4 concentration ([3]; HAuCl4 20 μM): x
- Microbial growth in dependence on HAuCl4 concentration ([3]; HAuCl4 100 μM): x
- Microbial growth in dependence on HAuCl4 concentration ([3]; HAuCl4 200 μM): x
- Microbial growth in dependence on HAuCl4 concentration ([3]; HAuCl4 300 μM): x
- Microbial growth in dependence on HAuCl4 concentration ([4]; HAuCl4 2 μM): x
- Microbial growth in dependence on HAuCl4 concentration ([4]; HAuCl4 20 μM): x
- Microbial growth in dependence on HAuCl4 concentration ([4]; HAuCl4 100 μM): x
- Microbial growth in dependence on HAuCl4 concentration ([4]; HAuCl4 200 μM): x
- Microbial growth in dependence on HAuCl4 concentration ([4]; HAuCl4 300 μM): x
